Experimental data: patent publication US20080261895A1 (Wyeth, priority 2006, published 2008)
Several values for one entry are separate records, joined by “and”; a condition that tells them apart may be missing. Equal entries are not always repeated.

Columns and labels:
[1] = Fecal excretion and metabolite profile by radiochromatography, dogs; assay type: in vivo, beagle dogs; conditions: single oral 30 mg/kg
Procedure: (§1) For each dog, urine and feces were collected separately, with urine collected on dry ice and feces collected at room temperature. Collections were from 0-8 and 8-24 hours for urine and 0-24 hours for feces. Urine and fecal samples were shipped on dry ice to Wyeth Research, Biotransformation Division (Collegeville, Pa.) for analysis. Fecal samples were homogenized in approximately five volumes (v/w) of water. Aliquots of approximately 0.2 grams of the homogenate were placed into combusto-cones, weighed and allowed to air dry. These samples were then oxidized and radioactivity content determined. The remaining urine samples and fecal homogenates were stored at −70° C. until metabolite analysis. Blood samples and fecal homogenates were oxidized in a Model 307 Tri-Carb sample oxidizer, using Carbosorb® E (6 mL) as trapping agent and PermaFluor® E^+ (10 mL) as scintillant. The background reading (average of control blood or fecal samples) was subtracted from each sample reading. Aliquots of urine and plasma were analyzed directly following the addition of 10 mL of Ultima Gold™ scintillation fluid.
Fecal homogenates collected up to 24 hours post-dose were analyzed for metabolite profiles. Aliquots of approximately 2 grams of fecal homogenate were transferred to a fresh tube, an equal volume of acetonitrile (v/w) was added, and the tube vortexed. Samples were then centrifuged at 14000 rpm in an Eppendorf Model 5415C centrifuge for 10 minutes. The supernatant was transferred to a clean tube. The residue was re-suspended with 1 mL acetonitrile and centrifuged as described above. The resulting supernatant was combined with the original supernatant and analyzed for radioactivity. The supernatants were then concentrated under a stream of nitrogen in a Turbo Vap to remove the acetonitrile. An aliquot of the aqueous residue was analyzed by HPLC for profiling. Selected samples were also analyzed by LC/MS to characterize the radioactive peaks.
Chromatographic analyses were performed with a Waters Alliance model 2690 HPLC system (Waters Corp., Milford, Mass.). It was equipped with a built-in autosampler and was in-line with a model 2487 tunable UV detector, set to monitor 225 nm, and a FloOne β Model 515 radioactivity flow detector (Perkin Elmer) with a 250 μL LQTR flow cell. The flow rate of Ultima Flow M scintillation fluid was 3 mL/min, providing a mixing ratio of scintillation cocktail to mobile phase of 3:1. Separation of the metabolite peaks was accomplished on a Phenomenex Luna C18(2) column, 250×4.6 mm, 5 micron (Phenomenex, Torrance, Calif.), using a linear gradient of two mobile phases, A and B. Mobile phase A was 10 mM ammonium acetate, pH 5.5, and mobile phase B was acetonitrile. The flow rate was 1 mL/min.

[2] = Whole blood and plasma radioactivity and partitioning after single oral [14C]DVS, dogs; assay type: in vivo, beagle dogs; conditions: single oral 30 mg/kg; for Radioactivity in Plasma, Individual Dogs / Radioactivity in Plasma, Mean ± S.D. / Radioactivity in Whole Blood, Individual Dogs: listed as [^14C]DVS, 30 mg/kg
Procedure: Male beagle dogs (n=4), weighing between 14.4 and 16.2 kg at the time of dosing (from an in-house colony), were used. For ease of reporting, the animals were designated numbers 5 through 8. Dose preparation, animal dosing and sample collection were performed at Wyeth Research, Pearl River, N.Y.
The oral dosing solution was prepared by suspending 19.0 mg of [^14C]DVS and 4168.3 mg of unlabeled DVS in 270 mL of vehicle (0.25% polysorbate 80, 0.5% methylcellulose in water). The radiochemical purity, specific activity and concentration of [^14C]DVS (bulk drug and dosing solution) were determined using HPLC with radiometric detection. Duplicate aliquots of the dosing solution were taken pre-, mid- and post-dose for the determination of specific activity and radioactivity concentrations of the dosing solution.
The target dose for each animal was 30 mg/kg (free base; 10 mg/mL, 3 mL/kg, 30 μCi/kg) [^14C]DVS via oral gavage. The target dose was selected because it has been used in previous pharmacokinetic studies.
Whole blood (approximately 10 mL), collected into heparinized tubes at 1, 4, 8, and 24 hours post-dose (N=4 for each time point), was analyzed. One mL of blood was transferred to a fresh tube to be used for determination of radioactivity concentrations. Plasma was obtained by centrifugation at 4° C. within two hours of blood collection. Plasma and whole blood samples were shipped on dry ice to Wyeth Research, Biotransformation Division (Collegeville, Pa.) for analysis. Triplicate aliquots of whole blood (200 μL) were placed into combusto-cones and allowed to air dry. These samples were then oxidized and radioactivity content determined. Triplicate aliquots (100 μL) of the plasma samples were analyzed for radioactivity content. The remaining plasma was stored at −70° C. until metabolite analysis.
as §1
All radioactivity determinations were made using a Tri-Carb Model 3100TR liquid scintillation counter (Packard BioScience, Boston, Mass.) with an Ultima GOl™ or toluene standard curve. Counts per minute (CPM) were converted to disintegrations per minute (DPM) by use of external standards of known radioactivity. The quench of each standard was determined by the transformed spectral index of an external radioactive standard (tSIE). The lower limits of detection were defined as twice background.

[3] = Stability of [14C]DVS in control dog plasma; assay type: in vitro ADME; conditions: 37° C., up to 24 hours
Procedure: The stability of [^14C]DVS in dog plasma was determined. [^14C]DVS (0.012 mg/mL, final concentration) was added to control dog plasma and incubated in a shaking water bath set to 37° C. Duplicate aliquots (1 mL) were removed at 0, 1, 4, 8, and 24 hours. Samples were extracted as described above and radiopurity assayed by HPLC analysis.

- Compounds Detected by Radiochromatography in feces, percent of total peaks, individual dogs ([1]; feces 0-24 hours post dose (dog 7 until 48 hours), average of 2 analyses): 78.6% and 50.6% and 85.7% and 88.8%
- Radioactivity as % of Dose in feces, individual dogs ([1]; feces 0-24 hours post dose (dog 7 until 48 hours), listed as [^14C]DVS): 4.4% and 0.3% and 4.0% and 3.3%
- Compounds Detected by Radiochromatography in feces, percent of total peaks, Mean ± S.D. ([1]; feces 0-24 hours post dose): 76% and 75.9 ± 17.4%
- Radioactivity as % of Dose in feces, Mean ± S.D. ([1]; feces 0-24 hours post dose): approximately 3%
- Radioactivity as % of Dose in feces, Mean ± S.D. ([1]; feces 0-24 hours post dose, listed as [^14C]DVS): 3.0 ± 1.9%
- Radioactivity in Whole Blood, Mean ± S.D. ([2]; 1 hr): 8.37 ± 1.45 μg equivalents/mL
- Radioactivity in Whole Blood, Mean ± S.D. ([2]; 4 hr): 8.58 ± 0.59 μg equivalents/mL
- Radioactivity in Whole Blood, Mean ± S.D. ([2]; 8 hr): 3.84 ± 1.01 μg equivalents/mL
- Radioactivity in Whole Blood, Mean ± S.D. ([2]; 24 hr): 0.48 ± 0.20 μg equivalents/mL
- Stability of [14C]DVS in control dog plasma [3]: stable
SMILES: CN(C)CC(c1ccc(O)cc1)C1(O)CCCCC1.O=C(O)CCC(=O)O (stereo not shown) [DVS, O-desmethylvenlafaxine succinate]
- Radioactivity in Plasma, Individual Dogs ([2]; 1 hr): 14.6 μg equivalents/mL and 11.5 μg equivalents/mL and 9.56 μg equivalents/mL and 17.5 μg equivalents/mL
- Radioactivity in Plasma, Mean ± S.D. ([2]; 1 hr): 13.3 μg equivalents/mL and 13.3 ± 3.5 μg equivalents/mL
- Radioactivity in Whole Blood, Individual Dogs ([2]; 1 hr): 8.56 μg equivalents/mL and 8.61 μg equivalents/mL and 6.40 μg equivalents/mL and 9.91 μg equivalents/mL
- Radioactivity in Plasma, Individual Dogs ([2]; 4 hr): 17.0 μg equivalents/mL and 16.8 μg equivalents/mL and 16.5 μg equivalents/mL and 17.1 μg equivalents/mL
- Radioactivity in Plasma, Mean ± S.D. ([2]; 4 hr): 16.9 μg equivalents/mL and 16.9 ± 0.3 μg equivalents/mL
- Radioactivity in Whole Blood, Individual Dogs ([2]; 4 hr): 8.16 μg equivalents/mL and 8.03 μg equivalents/mL and 8.82 μg equivalents/mL and 9.30 μg equivalents/mL
- Radioactivity in Plasma, Individual Dogs ([2]; 8 hr): 4.51 μg equivalents/mL and 9.12 μg equivalents/mL and 10.2 μg equivalents/mL and 5.87 μg equivalents/mL
- Radioactivity in Plasma, Mean ± S.D. ([2]; 8 hr): 7.43 μg equivalents/mL and 7.43 ± 2.68 μg equivalents/mL
- Radioactivity in Whole Blood, Individual Dogs ([2]; 8 hr): 3.30 μg equivalents/mL and 3.79 μg equivalents/mL and 5.27 μg equivalents/mL and 2.98 μg equivalents/mL
- Radioactivity in Plasma, Individual Dogs ([2]; 24 hr): 0.66 μg equivalents/mL and 0.86 μg equivalents/mL and 1.14 μg equivalents/mL and 0.56 μg equivalents/mL
- Radioactivity in Plasma, Mean ± S.D. ([2]; 24 hr): 0.81 μg equivalents/mL and 0.81 ± 0.25 μg equivalents/mL
- Radioactivity in Whole Blood, Individual Dogs ([2]; 24 hr): 0.38 μg equivalents/mL and 0.47 μg equivalents/mL and 0.75 μg equivalents/mL and 0.31 μg equivalents/mL
